{"source": "patent US11076594B2", "about": "“Pyrazolone compound or salt thereof, preparation method therefor, herbicide composition and use thereof” (QINGDAO KINGAGROOT CHEMICAL COMPOUNDS CO., LTD., priority 2015, dated 2021)", "assay_type_in_all_cases": "in vivo", "key": {"Indian mallow": {"tested_on": "Indian mallow", "assay": "weed control effect in post-emergence stage (Table 1)", "design": "key: Level 10: completely dead; Level 9: above 95% growth control rate; Level 8: above 90% growth control rate; Level 7: above 80% growth control rate; Level 6: above 70% growth control rate; Level 5: above 60% growth control rate; Level 4: above 50% growth control rate; Level 3: above 20% growth control rate; Level 2: 5%-20% growth control rate; Level 1: below 5% growth control rate", "conditions": "post-emergence spray at 4-5 leaf stage, 250 g/ha active ingredient with 450 kg/ha water, rated after 3 weeks in greenhouse", "outline": "(§1)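 Post-emergence spray: compounds dissolved in acetone, Tween 80 added, diluted with water, applied to plants at 4-5 leaf stage. Plants kept 3 wk in greenhouse; activity scored as fresh-weight control rate.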"}, "bidens bipinnata": {"tested_on": "bidens bipinnata", "assay": "weed control effect in post-emergence stage (Table 1)", "design": "key: Level 10: completely dead; Level 9: above 95% growth control rate; Level 8: above 90% growth control rate; Level 7: above 80% growth control rate; Level 6: above 70% growth control rate; Level 5: above 60% growth control rate; Level 4: above 50% growth control rate; Level 3: above 20% growth control rate; Level 2: 5%-20% growth control rate; Level 1: below 5% growth control rate", "conditions": "post-emergence spray at 4-5 leaf stage, 250 g/ha active ingredient with 450 kg/ha water, rated after 3 weeks in greenhouse", "outline": "as §1"}, "crab grass": {"tested_on": "crab grass", "assay": "weed control effect in post-emergence stage (Table 1)", "design": "key: Level 10: completely dead; Level 9: above 95% growth control rate; Level 8: above 90% growth control rate; Level 7: above 80% growth control rate; Level 6: above 70% growth control rate; Level 5: above 60% growth control rate; Level 4: above 50% growth control rate; Level 3: above 20% growth control rate; Level 2: 5%-20% growth control rate; Level 1: below 5% growth control rate", "conditions": "post-emergence spray at 4-5 leaf stage, 250 g/ha active ingredient with 450 kg/ha water, rated after 3 weeks in greenhouse", "outline": "as §1"}, "echinochloa [1]": {"tested_on": "echinochloa", "assay": "weed control effect in post-emergence stage (Table 1)", "design": "key: Level 10: completely dead; Level 9: above 95% growth control rate; Level 8: above 90% growth control rate; Level 7: above 80% growth control rate; Level 6: above 70% growth control rate; Level 5: above 60% growth control rate; Level 4: above 50% growth control rate; Level 3: above 20% growth control rate; Level 2: 5%-20% growth control rate; Level 1: below 5% growth control rate", "conditions": "post-emergence spray at 4-5 leaf stage, 250 g/ha active ingredient with 450 kg/ha water, rated after 3 weeks in greenhouse", "outline": "as §1"}, "foxtail": {"tested_on": "foxtail", "assay": "weed control effect in post-emergence stage (Table 1)", "design": "key: Level 10: completely dead; Level 9: above 95% growth control rate; Level 8: above 90% growth control rate; Level 7: above 80% growth control rate; Level 6: above 70% growth control rate; Level 5: above 60% growth control rate; Level 4: above 50% growth control rate; Level 3: above 20% growth control rate; Level 2: 5%-20% growth control rate; Level 1: below 5% growth control rate", "conditions": "post-emergence spray at 4-5 leaf stage, 250 g/ha active ingredient with 450 kg/ha water, rated after 3 weeks in greenhouse", "outline": "as §1"}, "rorippa indica": {"tested_on": "rorippa indica", "assay": "weed control effect in post-emergence stage (Table 1)", "design": "key: Level 10: completely dead; Level 9: above 95% growth control rate; Level 8: above 90% growth control rate; Level 7: above 80% growth control rate; Level 6: above 70% growth control rate; Level 5: above 60% growth control rate; Level 4: above 50% growth control rate; Level 3: above 20% growth control rate; Level 2: 5%-20% growth control rate; Level 1: below 5% growth control rate", "conditions": "post-emergence spray at 4-5 leaf stage, 250 g/ha active ingredient with 450 kg/ha water, rated after 3 weeks in greenhouse", "outline": "as §1"}, "corn": {"tested_on": "corn", "assay": "post-emergence stage experiment, crop (Table 1)", "conditions": "post-emergence spray at 4-5 leaf stage, 250 g/ha active ingredient with 450 kg/ha water, rated after 3 weeks in greenhouse", "outline": "as §1"}, "wheat": {"tested_on": "wheat", "assay": "post-emergence stage experiment, crop (Table 1)", "conditions": "post-emergence spray at 4-5 leaf stage, 250 g/ha active ingredient with 450 kg/ha water, rated after 3 weeks in greenhouse", "outline": "as §1"}, "rice": {"tested_on": "rice", "assay": "post-emergence stage experiment, crop (Table 1)", "conditions": "post-emergence spray at 4-5 leaf stage, 250 g/ha active ingredient with 450 kg/ha water, rated after 3 weeks in greenhouse", "outline": "as §1"}, "bidens tripartite": {"tested_on": "bidens tripartite", "assay": "weed control effect evaluation in rice field", "design": "key: Level 10: completely dead; Level 9: above 95% growth control rate; Level 8: above 90% growth control rate; Level 7: above 80% growth control rate; Level 6: above 70% growth control rate; Level 5: above 60% growth control rate; Level 4: above 50% growth control rate; Level 3: above 20% growth control rate; Level 2: 5%-20% growth control rate; Level 1: below 5% growth control rate", "conditions": "125 g/ha ai; rice field pot; 14 days after treatment; resistant to pyrazosulfuron-ethyl", "from_the_text": "(§2) The activity level standard of harmful plant destruction (i.e. growth control rate) is as follows: Rice field soil was loaded into a 1/1,000,000 ha pot. The seeds of echinochloa, scirpus juncoides, bidens tripartite and sagittaria trifolia were sowed and gently covered with soil, then left to stand still in greenhouse in the state of 0.5-1 cm of water storage. The tuber of sagittaria trifolia was planted in the next day or 2 days later. It was kept at 3-4 cm of water storage thereafter. The weeds were treated by dripping the WP or SC water diluents prepared according to the common preparation method of the compounds of the present invention with pipette homogeneously to achieve specified effective amount when echinochloa, scirpus juncoides and bidens tripartite reached 0.5 leaf stage and sagittaria trifolia reached the time point of primary leaf stage. The fertility condition of echinochloa, scirpus juncoides, bidens tripartite and sagittaria trifolia 14 days after the treatment of the compound of the invention and the fertility condition of rice 21 days after the treatment of the compound of the invention respectively with the naked eye."}, "echinochloa [2]": {"tested_on": "echinochloa", "assay": "weed control effect evaluation in rice field", "design": "key: Level 10: completely dead; Level 9: above 95% growth control rate; Level 8: above 90% growth control rate; Level 7: above 80% growth control rate; Level 6: above 70% growth control rate; Level 5: above 60% growth control rate; Level 4: above 50% growth control rate; Level 3: above 20% growth control rate; Level 2: 5%-20% growth control rate; Level 1: below 5% growth control rate", "conditions": "125 g/ha ai; rice field pot; 14 days after treatment; resistant to pyrazosulfuron-ethyl", "from_the_text": "as §2"}, "sagittaria trifolia": {"tested_on": "sagittaria trifolia", "assay": "weed control effect evaluation in rice field", "design": "key: Level 10: completely dead; Level 9: above 95% growth control rate; Level 8: above 90% growth control rate; Level 7: above 80% growth control rate; Level 6: above 70% growth control rate; Level 5: above 60% growth control rate; Level 4: above 50% growth control rate; Level 3: above 20% growth control rate; Level 2: 5%-20% growth control rate; Level 1: below 5% growth control rate", "conditions": "125 g/ha ai; rice field pot; 14 days after treatment; resistant to pyrazosulfuron-ethyl", "from_the_text": "as §2"}, "scirpus juncoides": {"tested_on": "scirpus juncoides", "assay": "weed control effect evaluation in rice field", "design": "key: Level 10: completely dead; Level 9: above 95% growth control rate; Level 8: above 90% growth control rate; Level 7: above 80% growth control rate; Level 6: above 70% growth control rate; Level 5: above 60% growth control rate; Level 4: above 50% growth control rate; Level 3: above 20% growth control rate; Level 2: 5%-20% growth control rate; Level 1: below 5% growth control rate", "conditions": "125 g/ha ai; rice field pot; 14 days after treatment; resistant to pyrazosulfuron-ethyl", "from_the_text": "as §2"}, "rice (japonica rice)": {"tested_on": "rice (japonica rice)", "assay": "transplanted rice safety evaluation", "conditions": "125 g/ha ai; treated 5 days after transplantation; 21 days after treatment", "experimental": "The activity level standard of harmful plant destruction (i.e. growth control rate) is as follows: In addition, the rice field soil that loaded into the 1/1,000,000 ha pot was leveled to keep water storage at 3-4 cm depth. The 3 leaf stage rice (japonica rice) was transplanted at 3 cm of transplanting depth the next day. The compound of the present invention was treated by the same way after 5 days of transplantation. The fertility condition of echinochloa, scirpus juncoides, bidens tripartite and sagittaria trifolia 14 days after the treatment of the compound of the invention and the fertility condition of rice 21 days after the treatment of the compound of the invention respectively with the naked eye."}}, "data": [{"molecule": "CCn1nc(C)c(C(=O)c2ccc(C(F)(F)F)c(-n3cccn3)c2Cl)c1O", "note": "[Compound 128]", "values": [{"measurement": "weed control effect, Indian mallow (level)", "setting": "Indian mallow", "result": "3 (Level 3: above 20% growth control rate)"}, {"measurement": "weed control effect, Bidens bipinnata (level)", "setting": "bidens bipinnata", "result": "6 (Level 6: above 70% growth control rate)"}, {"measurement": "weed control effect, Crab grass (level)", "setting": "crab grass", "result": "1 (Level 1: below 5% growth control rate)"}, {"measurement": "weed control effect, Echinochloa (level)", "setting": "echinochloa [1]", "result": 10}, {"measurement": "weed control effect, Green foxtail (level)", "setting": "foxtail", "result": 10}, {"measurement": "weed control effect, Rorippa indica (level)", "setting": "rorippa indica", "result": "7 (Level 7: above 80% growth control rate)"}, {"measurement": "effect on crop, Corn (level)", "setting": "corn", "result": 0}, {"measurement": "effect on crop, Wheat (level)", "setting": "wheat", "result": 0}, {"measurement": "effect on crop, Rice (level)", "setting": "rice", "result": "5 (Level 5: above 60% growth control rate)"}, {"measurement": "Bidens tripartite weed control effect (activity level)", "setting": "bidens tripartite", "result": "6 (Level 6: above 70% growth control rate)"}, {"measurement": "Echinochloa weed control effect (activity level)", "setting": "echinochloa [2]", "result": 10}, {"measurement": "Sagittaria trifolia weed control effect (activity level)", "setting": "sagittaria trifolia", "result": "8 (Level 8: above 90% growth control rate)"}, {"measurement": "Scirpus juncoides weed control effect (activity level)", "setting": "scirpus juncoides", "result": 10}, {"measurement": "Rice (activity level, transplanted rice safety)", "setting": "rice (japonica rice)", "result": "1 (Level 1: below 5% growth control rate)"}]}]}
